For one test, the target named is Plasminogen (Homo sapiens, UniProt P00747). Kind of test: Amidolytic Activity Assay (Plasmin). To be noted: pH 7.4. As for the experimental part:
Determination of amidolytic activity was performed as described previously [Okada et al., Chem. Pharm. Bull., 36:1289-1297]. Detailed description of the method is given below. To 0.2 cm3 of examined compound (1−11; 0.15 M NaCl as control), buffer, and 0.1 cm^3 of enzyme solution was added: tris buffer−0.5 cm^3 (pH = 7.4); enzyme: plasmin (0.4 unit/cm^3); synthetic substrate: S-2251 (0.2 cm^3, 3 mM/dm^3).

For the next test, the target named is Serine protease 1 (Homo sapiens, UniProt P07477). Kind of test: Amidolytic Activity Assay (Trypsin). The note with it: pH 7.5. As for the experimental part:
Determination of amidolytic activity was performed as described previously [Okada et al., Chem. Pharm. Bull., 36:1289-1297]. Detailed description of the method is given below. […]

Sequence of Serine protease 1 (P07477 whole entry): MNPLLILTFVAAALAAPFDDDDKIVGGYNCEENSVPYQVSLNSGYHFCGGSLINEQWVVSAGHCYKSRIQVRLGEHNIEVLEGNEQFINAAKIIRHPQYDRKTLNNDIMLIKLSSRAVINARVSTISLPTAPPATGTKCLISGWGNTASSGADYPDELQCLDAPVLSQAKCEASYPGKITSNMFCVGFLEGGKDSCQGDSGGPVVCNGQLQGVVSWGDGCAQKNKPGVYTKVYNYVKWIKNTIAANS
Sequence of Plasminogen (P00747 97-580 limits assumed): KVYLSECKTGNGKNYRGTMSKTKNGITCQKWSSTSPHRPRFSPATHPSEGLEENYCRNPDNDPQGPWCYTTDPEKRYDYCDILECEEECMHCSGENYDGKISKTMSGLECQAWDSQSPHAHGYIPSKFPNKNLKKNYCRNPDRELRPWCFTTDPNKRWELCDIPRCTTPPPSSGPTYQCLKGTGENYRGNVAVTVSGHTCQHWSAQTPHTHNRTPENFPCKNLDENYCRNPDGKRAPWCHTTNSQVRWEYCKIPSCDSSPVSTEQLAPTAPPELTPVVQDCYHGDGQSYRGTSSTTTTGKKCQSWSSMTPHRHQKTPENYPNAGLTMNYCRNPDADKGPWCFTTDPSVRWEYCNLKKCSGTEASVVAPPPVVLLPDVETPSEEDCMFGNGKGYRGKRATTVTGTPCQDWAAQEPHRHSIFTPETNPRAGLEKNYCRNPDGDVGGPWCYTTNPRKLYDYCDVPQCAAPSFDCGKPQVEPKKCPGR
Sequence of Plasminogen (P00747 581-810 limits assumed): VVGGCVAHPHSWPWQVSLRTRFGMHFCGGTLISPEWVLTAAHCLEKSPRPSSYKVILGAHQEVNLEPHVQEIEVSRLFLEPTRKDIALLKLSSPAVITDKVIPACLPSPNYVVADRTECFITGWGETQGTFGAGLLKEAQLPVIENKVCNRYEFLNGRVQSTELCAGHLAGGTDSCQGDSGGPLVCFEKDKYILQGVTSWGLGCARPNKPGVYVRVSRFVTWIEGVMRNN

As usually defined, the Ki is the dissociation constant of the complex between target and ligand, obtained from inhibition or displacement. A higher Ki goes with lower affinity. As for `C[C@H](NC(=O)[C@H](N)CO)C(=O)N[C@@H](CCCNC(=N)N)C(=O)NCCO` [H-D-Ser-Ala-Arg-NH-(CH2)2-OH (9)], the Ki at Plasminogen stood at 727 µM.

Regarding `C[C@H](NC(=O)[C@H](N)CO)C(=O)N[C@@H](CCCNC(=N)N)C(=O)NCCCO` [H-D-Ser-Ala-Arg-NH-(CH2)3-OH (10)], the Ki at Serine protease 1 is 15 µM; on Plasminogen, 1090 µM.

Take `C[C@H](NC(=O)[C@H](N)CO)C(=O)N[C@@H](CCCNC(=N)N)C(=O)NCCCCO` [H-D-Ser-Ala-Arg-NH-(CH2)4-OH (11)]: the Ki at Serine protease 1 worked out at 10 µM; at Plasminogen, 545 µM.

Consider `C[C@H](NC(=O)[C@H](N)CO)C(=O)N[C@@H](CCCNC(=N)N)C(=O)NCCCCCN` [H-D-Ser-Ala-Arg-NH-(CH2)5-NH2 (4)], for which the Ki at Plasminogen stood at 37 µM. As for `C[C@H](NC(=O)[C@H](N)CO)C(=O)N[C@@H](CCCNC(=N)N)C(=O)NCCCCCCN` [H-D-Ser-Ala-Arg-NH-(CH2)6-NH2 (5)], the Ki at Serine protease 1 was 2.5 µM; at Plasminogen, 181 µM.

Turning to `C[C@H](NC(=O)[C@H](N)CO)C(=O)N[C@@H](CCCNC(=N)N)C(=O)NCCCCCCCN` [H-D-Ser-Ala-Arg-NH-(CH2)7-NH2 (6)], the Ki at Serine protease 1 amounted to 30 µM; on Plasminogen, 364 µM.

On Serine protease 1, `C[C@H](NC(=O)[C@H](N)CO)C(=O)N[C@@H](CCCNC(=N)N)C(=O)NCCCCCCCCN` [H-D-Ser-Ala-Arg-NH-(CH2)8-NH2 (7)] displayed a Ki of 10 µM. Consider `C[C@H](NC(=O)[C@H](N)CO)C(=O)N[C@@H](CCCNC(=N)N)C(=O)NCCCCCCCCCN` [H-D-Ser-Ala-Arg-NH-(CH2)9-NH2 (8)], for which the Ki on Serine protease 1 came out at 5 µM; on Plasminogen, 90 µM.

For the origin of these results see BindingDB's records for doi:10.3109/14756360903049042 (Medical University of Bialystok, 2010).
